The record followed here is patent US20240327380A1, “BTK INHIBITORS” (BIOGEN MA INC., priority 2020, published 2024).

pIC50: −log10 of the molar value. Where only a bound is given, the exact number is not on record here.

This experiment deals with T1, active BTK enzyme (Upstate 14-552) (Homo sapiens, UniProt Q06187).
T1 construct: purchased Upstate 14-552
T1 sequence (Q06187 whole entry): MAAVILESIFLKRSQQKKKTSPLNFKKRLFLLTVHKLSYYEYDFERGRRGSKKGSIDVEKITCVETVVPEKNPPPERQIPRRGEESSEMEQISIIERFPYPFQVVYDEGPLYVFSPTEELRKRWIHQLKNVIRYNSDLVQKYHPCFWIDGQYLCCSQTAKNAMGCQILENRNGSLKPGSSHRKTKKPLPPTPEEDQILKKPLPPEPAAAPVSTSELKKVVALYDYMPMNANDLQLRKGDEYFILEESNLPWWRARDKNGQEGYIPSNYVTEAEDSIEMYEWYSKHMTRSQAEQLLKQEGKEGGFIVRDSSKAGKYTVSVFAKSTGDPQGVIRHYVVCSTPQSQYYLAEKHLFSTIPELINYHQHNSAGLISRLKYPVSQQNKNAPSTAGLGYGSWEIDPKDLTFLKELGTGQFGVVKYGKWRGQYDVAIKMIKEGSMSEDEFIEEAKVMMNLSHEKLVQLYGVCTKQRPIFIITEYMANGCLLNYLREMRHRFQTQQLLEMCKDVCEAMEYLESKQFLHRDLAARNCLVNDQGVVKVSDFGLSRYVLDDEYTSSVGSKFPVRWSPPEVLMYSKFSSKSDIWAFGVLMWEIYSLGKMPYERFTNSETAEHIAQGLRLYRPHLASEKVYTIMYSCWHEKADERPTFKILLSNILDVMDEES
Nature of the experiment: In Vitro BTK Kinase Assay: Btk-PolyGAT-LS Assay. In kind it is biochemical. To be noted: ATP 10 μM, polyGAT 100 nM, BTK 0.25 nM, 30 minutes, TRF readout. On the procedure:
In Vitro BTK Kinase Assay: Btk-PolyGAT-LS Assay The purpose of the BTK in vitro assay is to determine compound potency against BTK through the measurement of IC50. Compound inhibition is measured after monitoring the amount of phosphorylation of a fluorescein-labeled polyGAT peptide (Invitrogen PV3611) in the presence of active BTK enzyme (Upstate 14-552), ATP, and inhibitor. The BTK kinase reaction was done in a black 96 well plate (costar 3694). For a typical assay, a 24 μL aliquot of a ATP/peptide master mix (final concentration; ATP 10 μM, polyGAT 100 nM) in kinase buffer (10 mM Tris-HCl pH 7.5, 10 mM MgCl2, 200 μM […], 5 mM DTT, 0.01% Triton X-100, and 0.2 mg/ml casein) is added to each well. Next, […] of a 4-fold, 40× compound titration in 100% DMSO solvent is added, followed by adding 15 μL of BTK enzyme mix in 1× kinase buffer (with a final concentration of 0.25 nM). The assay is incubated for 30 minutes before being stopped with 28 μL of a 50 mM EDTA solution. Aliquots (5 μL) of the kinase reaction are transferred to a low volume white 384 well plate (Coming 3674), and 5 μL of a 2× detection buffer (Invitrogen PV3574, with 4 nM Tb-PY20 antibody, Invitrogen PV3552) is added. The plate is covered and incubated for 45 minutes at room temperature. Time resolved fluorescence (TRF) on Molecular Devices M5 (332 nm excitation; 488 nm emission; 518 nm fluorescein emission) is measured. IC50 values are calculated using a four parameter fit with 100% enzyme activity determined from the DMSO control and 0% activity from the EDTA control.
As for `C=CC(=O)N1CCC[C@@H](c2cnccc2-c2ccc(CNC(=O)c3cn(C(C)(C)C)nn3)c(C)c2)C1` (single isomer, unassigned) [Example 25], the pIC50 is below 8.00.
To `C=CC(=O)N1CCC[C@H](c2cnccc2-c2ccc(CNC(=O)c3noc(C4(C)CC4)n3)c(C)c2)C1` (single isomer, unassigned) [Example 27] belongs below 8.00.
To `C=CC(=O)N1CCC[C@@H](c2cnccc2-c2ccc(CNC(=O)c3nc(C4(C)CC4)no3)c(C)c2)C1` (single isomer, unassigned) [Example 31] belongs below 8.00; to `C=CC(=O)N1CCC[C@@H](c2cnccc2-c2ccc(CNC(=O)c3cc(C(C)(C)C)on3)c(C)c2)C1` (single isomer, unassigned) [Example 34], below 8.00.
To `C=CC(=O)N(C)[C@@H]1CCC(=O)N(c2cnccc2-c2ccc(CNC(=O)c3nnn(C(C)(C)C)n3)c(C)c2)C1` (single isomer, unassigned) [Example 53 Peak 2] belongs below 8.00; to `C=CC(=O)N1CCC2(CCN(c3cnccc3-c3ccc(CNC(=O)c4cn(C(C)(C)C)nn4)c(C)c3)C2)C1` (stereo not drawn) [Example 4, N-(4-(3-(7-acryloyl-2,7-diazaspiro[4.4]nonan-2-yl)pyridin-4-yl)-2-methylbenzyl)-1-(tert-butyl)-1H-1,2,3-triazole-4-carboxamide], below 8.00.
Compound `C=CC(=O)N1CCC2(CCN(c3cnccc3-c3ccc(CNC(=O)c4cn(C)nc4C(F)F)c(C)c3)C2)C1` (stereo not drawn) [Example 5, N-(4-(3-(7-acryloyl-2,7-diazaspiro[4.4]nonan-2-yl)pyridin-4-yl)-2-methylbenzyl)-3-(difluoromethyl)-1-methyl-1H-pyrazole-4-carboxamide] gave a pIC50 below 8.00.
To `C=CC(=O)N1CC2(C1)CN(c1cnccc1-c1ccc(CNC(=O)c3noc(C(C)(C)C)n3)c(C)c1)C2` [Example 6, N-(4-(3-(6-acryloyl-2,6-diazaspiro[3.3]heptan-2-yl)pyridin-4-yl)-2-methylbenzyl)-5-(tert-butyl)-1,2,4-oxadiazole-3-carboxamide] belongs below 8.00; to `C=CC(=O)N1CC2(CCN(c3cnccc3-c3ccc(CNC(=O)c4noc(C(C)(C)C)n4)c(C)c3)C2)C1` [Example 7, N-(4-(3-(2-acryloyl-2,6-diazaspiro[3.4]octan-6-yl)pyridin-4-yl)-2-methylbenzyl)-5-(tert-butyl)-1,2,4-oxadiazole-3-carboxamide], below 8.00; to `C=CC(=O)N(C)C1CCN(c2cncnc2-c2ccc(CNC(=O)c3cn(C(C)(C)C)nn3)c(C)c2)C1` (stereo not drawn) [Example 9, 1-(tert-butyl)-N-(2-methyl-4-(5-(3-(N-methylacrylamido)pyrrolidin-1-yl)pyrimidin-4-yl)benzyl)-1H-1,2,3-triazole-4-carboxamide], at least 9.00.
Compound `C=CC(=O)N(C)C1CCCN(c2cnccc2-c2ccc(CNC(=O)c3cn(C(C)(C)C)nn3)c(C)c2)C1=O` (stereo not drawn) [Example 10, 1-(tert-butyl)-N-(2-methyl-4-(3-(3-(N-methylacrylamido)-2-oxopiperidin-1-yl)pyridin-4-yl)benzyl)-1H-1,2,3-triazole-4-carboxamide] had a pIC50 below 8.00.
Take `C=CC(=O)N(C)C1CCN(c2cnccc2-c2ccc(CNC(=O)c3cn(C(C)(C)C)nn3)c(C)c2)C1=O` (stereo not drawn) [Example 11, 1-(tert-butyl)-N-(2-methyl-4-(3-(3-(N-methylacrylamido)-2-oxopyrrolidin-1-yl)pyridin-4-yl)benzyl)-1H-1,2,3-triazole-4-carboxamide]: the pIC50 was below 8.00.
For the compound `C=CC(=O)N(C)CC1CCN(c2cnccc2-c2ccc(CNC(=O)c3noc(C(C)(C)C)n3)c(C)c2)C1` (stereo not drawn) [Example 20, 5-(tert-butyl)-N-(2-methyl-4-(3-(3-((N-methylacrylamido)methyl)pyrrolidin-1-yl)pyridin-4-yl)benzyl)-1,2,4-oxadiazole-3-carboxamide], the pIC50 is at least 9.00.
To `C=CC(=O)N(C)CC1CCCN(c2cnccc2-c2ccc(CNC(=O)c3noc(C(C)(C)C)n3)c(C)c2)C1` (stereo not drawn) [Example 21, 5-(tert-butyl)-N-(2-methyl-4-(3-(3-((N-methylacrylamido)methyl)piperidin-1-yl)pyridin-4-yl)benzyl)-1,2,4-oxadiazole-3-carboxamide] belongs 8.00 to 9.00; to `C=CC(=O)N(C)C1CCCN(c2cnccc2-c2ccc(CNC(=O)c3cnc(C(C)(C)C)o3)c(C)c2)C1` (stereo not drawn) [Example 38, 2-(tert-butyl)-N-(2-methyl-4-(3-(3-(N-methylacrylamido)piperidin-1-yl)pyridin-4-yl)benzyl)oxazole-5-carboxamide], at least 9.00; to `C=CC(=O)N(C)C1CCCN(c2cnccc2-c2ccc(CNC(=O)c3ncc(C(C)(C)C)o3)c(C)c2)C1` (stereo not drawn) [Example 45, 5-(tert-butyl)-N-(2-methyl-4-(3-(3-(N-methylacrylamido)piperidin-1-yl)pyridin-4-yl)benzyl)oxazole-2-carboxamide], at least 9.00.
`C=CC(=O)N(C)[C@@H]1CCCN(c2cncc(C#N)c2-c2ccc(CNC(=O)c3cn(C(C)(C)C)nn3)c(C)c2F)C1` [Example 47, 1-(tert-butyl)-N-(4-(3-cyano-5-((R)-3-(N-methylacrylamido)piperidin-1-yl)pyridin-4-yl)-3-fluoro-2-methylbenzyl)-1H-1,2,3-triazole-4-carboxamide]: the negative logarithm of the IC50 (pIC50) is at least 9.00.
To `C=CC(=O)N(C)[C@@H]1CCCN(c2cncc(C#N)c2-c2ccc(CNC(=O)c3cn(C(C)(C)C)nn3)c(C)c2)C1` [Example 48, (R)-1-(tert-butyl)-N-(4-(3-cyano-5-(3-(N-methylacrylamido)piperidin-1-yl)pyridin-4-yl)-2-methylbenzyl)-1H-1,2,3-triazole-4-carboxamide] belongs at least 9.00; to `C=CC(=O)N1CCN(c2cncnc2-c2ccc(CNC(=O)c3cn(C(C)(C)C)nn3)c(C)c2)CC1` [Example 50, N-(4-(5-(4-acryloylpiperazin-1-yl)pyrimidin-4-yl)-2-methylbenzyl)-1-(tert-butyl)-1H-1,2,3-triazole-4-carboxamide], at least 9.00; to `C=CC(=O)N1CC2CC1CN(c1cnccc1-c1ccc(CNC(=O)c3cn(C(C)(C)C)nn3)c(C)c1)C2` (stereo not drawn) [Example 54, 1-tert-butyl-N-[[2-methyl-4-[3-(6-prop-2-enoyl-3,6-diazabicyclo[3.2.1]octan-3-yl)-4-pyridyl]phenyl]methyl]triazole-4-carboxamide], below 8.00.
To `C=CC(=O)N1CC2CC1CN(c1cnccc1-c1ccc(CNC(=O)c3cc(C(C)(C)C)on3)c(C)c1)C2` (stereo not drawn) [Example 55, 5-tert-butyl-N-[[2-methyl-4-[3-(6-prop-2-enoyl-3,6-diazabicyclo[3.2.1]octan-3-yl)-4-pyridyl]phenyl]methyl]isoxazole-3-carboxamide] belongs below 8.00; to `Cc1cc(-c2ccncc2N2CCN(C(=O)C3=CCC3)CC2)ccc1CNC(=O)c1noc(C(C)(C)C)n1` [Example 57, 5-(tert-butyl)-N-(4-(3-(4-(cyclobut-1-ene-1-carbonyl)piperazin-1-yl)pyridin-4-yl)-2-methylbenzyl)-1,2,4-oxadiazole-3-carboxamide], at least 9.00; to `Cc1cc(-c2ccncc2N2CCN(C(=O)/C=C/C(F)(F)F)CC2)ccc1CNC(=O)c1noc(C(C)(C)C)n1` [Example 58, (E)-5-(tert-butyl)-N-(2-methyl-4-(3-(4-(4,4,4-trifluorobut-2-enoyl)piperazin-1-yl)pyridin-4-yl)benzyl)-1,2,4-oxadiazole-3-carboxamide], at least 9.00.
Take `Cc1cc(-c2ccncc2N2CCN(C(=O)C3CO3)CC2)ccc1CNC(=O)c1noc(C(C)(C)C)n1` (stereo not drawn) [Example 59, 5-(tert-butyl)-N-(2-methyl-4-(3-(4-(oxirane-2-carbonyl)piperazin-1-yl)pyridin-4-yl)benzyl)-1,2,4-oxadiazole-3-carboxamide]: the pIC50 is 8.00 to 9.00.
To `C#CC(=O)N1CCN(c2cnccc2-c2ccc(CNC(=O)c3noc(C(C)(C)C)n3)c(C)c2)CC1` [Example 60, 5-(tert-butyl)-N-(2-methyl-4-(3-(4-propioloylpiperazin-1-yl)pyridin-4-yl)benzyl)-1,2,4-oxadiazole-3-carboxamide] belongs at least 9.00; to `CC#CC(=O)N1CCN(c2cnccc2-c2ccc(CNC(=O)c3noc(C(C)(C)C)n3)c(C)c2)CC1` [Example 62, N-(4-(3-(4-(but-2-ynoyl)piperazin-1-yl)pyridin-4-yl)-2-methylbenzyl)-5-(tert-butyl)-1,2,4-oxadiazole-3-carboxamide], at least 9.00.
In the case of `Cc1cc(-c2ccncc2N2CCN(C(=O)/C=C/CN3CC(F)C3)CC2)ccc1CNC(=O)c1noc(C(C)(C)C)n1` [Example 64, (E)-5-(tert-butyl)-N-(4-(3-(4-(4-(3-fluoroazetidin-1-yl)but-2-enoyl)piperazin-1-yl)pyridin-4-yl)-2-methylbenzyl)-1,2,4-oxadiazole-3-carboxamide], the pIC50 is 8.00 to 9.00.
